Results as given in ChEMBL document CHEMBL1135480, “Design and quantitative structure-activity relationship of 3-amidinobenzyl-1H-indole-2-carboxamides as potent, nonchiral, and selective inhibitors of blood coagulation factor Xa” (J Med Chem, 2002).
Several values for one entry are separate records, joined by “and”; a condition that tells them apart may be missing. Equal values may be shown once.

Target: Coagulation factor X (Homo sapiens, UniProt P00742)
Test: Inhibition of Coagulation factor Xa

Coagulation factor X, sequence (P00742 41-179 limits assumed): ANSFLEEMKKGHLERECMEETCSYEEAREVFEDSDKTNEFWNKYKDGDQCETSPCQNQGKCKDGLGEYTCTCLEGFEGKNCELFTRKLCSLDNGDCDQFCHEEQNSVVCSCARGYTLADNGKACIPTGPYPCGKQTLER
Coagulation factor X, sequence (P00742 235-488 limits assumed): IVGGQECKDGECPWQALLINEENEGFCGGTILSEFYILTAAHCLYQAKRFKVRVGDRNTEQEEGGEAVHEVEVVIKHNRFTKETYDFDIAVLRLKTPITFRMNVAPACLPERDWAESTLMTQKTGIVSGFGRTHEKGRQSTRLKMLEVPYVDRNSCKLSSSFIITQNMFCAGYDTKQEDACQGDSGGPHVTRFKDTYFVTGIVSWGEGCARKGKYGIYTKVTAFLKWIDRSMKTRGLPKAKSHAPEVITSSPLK

SMILES	Ki
CN1CCC([C@@H](NC(=O)c2cc3ccccc3n2Cc2cccc(C(=N)N)c2)c2ccc3cc(Cl)ccc3c2)CC1	610 nM
COc1cccc(CNC(=O)c2cc3c(O)cccc3n2Cc2cccc(C(=N)N)c2)c1	308 nM
N=C(N)c1cccc(Cn2c(C(=O)NCCNc3cccc4ccccc34)cc3c(O)cccc32)c1	318 nM
N=C(N)c1cccc(Cn2c(C(=O)NCCc3ccc(Cl)c(Cl)c3)cc3c(O)cccc32)c1	918 nM
N=C(N)c1cccc(Cn2c(C(=O)NCCc3ccc(Cl)cc3Cl)cc3c(O)cccc32)c1	840 nM
COc1cc(CNC(=O)c2cc3c(O)cccc3n2Cc2cccc(C(=N)N)c2)cc(OC)c1	193 nM
N=C(N)c1cccc(CNC(=O)c2cc3cc(OCc4ccccc4)ccc3n2Cc2cccc(C(=N)N)c2)c1	133 nM
C[C@H](NC(=O)c1cc2cc(OCc3ccccc3)ccc2n1Cc1cccc(C(=N)S)c1)c1ccccc1	4830 nM
COC(=O)c1cccc(CNC(=O)c2cc3c(O)cccc3n2Cc2cccc(C(=N)N)c2)c1	2040 nM
C[N+]1(C)CCC(C(NC(=O)c2cc3ccccc3n2Cc2cccc(C(=N)N)c2)c2ccc3cc(Cl)ccc3c2)CC1 (centres undefined)	1310 nM
Cc1cccc2c1cc(C(=O)OCc1cccc(C(=N)N)c1)n2Cc1cccc(C(=N)N)c1	44 nM
N=C(N)c1cccc(Cn2c(C(=O)NCc3cc(F)cc(F)c3)cc3c(O)cccc32)c1	191 nM
N=C(N)c1cccc(CNC(=O)c2cc3cc(N)ccc3n2Cc2cccc(C(=N)N)c2)c1	51 nM
N=C(N)c1cccc(Cn2c(C(=O)NCc3ccnc4ccccc34)cc3c(O)cccc32)c1	300 nM
N=C(N)c1cccc(Cn2c(C(=O)NCC3CCCCC3)cc3c(O)cccc32)c1	1110 nM
N=C(N)c1cccc(Cn2c(C(=O)NCc3cccc(C(N)=O)c3)cc3ccccc32)c1	240 nM
N=C(N)c1cccc(Cn2c(C(=O)NCc3cccc4ccccc34)cc3c(O)cccc32)c1	68 nM
COc1cccc2c1cc(C(=O)NC(c1ccccc1)c1ccncc1)n2Cc1cccc(C(=N)N)c1 (centres undefined)	6790 nM
CCOC(=O)c1cc2ccccc2n1Cc1cccc(C(=N)N)c1	4200 nM
CN(CCNC(=O)c1cc2c(O)cccc2n1Cc1cccc(C(=N)N)c1)c1cccc2ccccc12	2470 nM
Cc1cccc2c1cc(C(=O)NCc1cccc(-c3ccccc3)c1)n2Cc1cccc(C(=N)N)c1	325 nM
Cc1cccc2c1cc(C(=O)NCC1CCN(C(=N)N)CC1)n2Cc1cccc(C(=N)N)c1	25 nM
N=C(N)c1cccc(CNC(=O)c2cc3cc(O)ccc3n2Cc2cccc(C(=N)N)c2)c1	77 nM
N=C(N)c1cccc(CNC(=O)c2cn(Cc3cccc(C(=N)N)c3)c3ccccc23)c1	1230 nM

SMILES	Ki
C[N+](C)(C)c1ccc(CNC(=O)c2cn(Cc3cccc(C(=N)N)c3)c3ccccc23)cc1	1820 nM
COC(=O)c1c(C)c2ccccc2n1Cc1cccc(C(=N)N)c1	8800 nM
CN(C)c1ccc(CNC(=O)c2cc3cc(F)ccc3n2Cc2cccc(C(=N)N)c2)cc1	3520 nM
C[N+](C)(C)c1ccc(CNC(=O)c2cc3cc(N)ccc3n2Cc2cccc(C(=N)N)c2)cc1	60 nM
COc1cccc2c1cc(C(=O)NCc1ccc(-c3cc[n+](C)cc3)cc1)n2Cc1cccc(C(=N)N)c1	110 nM
Cc1cccc2c1cc(C(=O)NCc1ccc([N+](C)(C)C)cc1)n2Cc1cccc(C(=N)N)c1	16 nM and 14 nM
C[N+](C)(C)c1ccc(CNC(=O)c2cc3c(OCc4ccccc4)cccc3n2Cc2cccc(C(=N)N)c2)cc1	84 nM
C[n+]1ccc(CNC(=O)c2cc3ccccc3n2Cc2cccc(C(=N)N)c2)cc1	150 nM
CC[N+](C)(C)c1ccc(CNC(=O)c2cc3cc(F)ccc3n2Cc2cccc(C(=N)N)c2)cc1	103 nM
CC(NC(=O)c1cc2ccccc2n1Cc1cccc(C(=N)N)c1)c1cc[n+](C)cc1 (centres undefined)	92 nM
C[n+]1cccc(CC(NC(=O)c2cc3ccccc3n2Cc2cccc(C(=N)N)c2)C(N)=O)c1 (centres undefined)	3900 nM
COc1ccc2cc(C(=O)NCc3ccc([N+](C)(C)C)cc3)n(Cc3cccc(C(=N)N)c3)c2c1	1760 nM
C[N+](C)(C)c1ccc(CNC(=O)c2cc3c(Br)cccc3n2Cc2cccc(C(=N)N)c2)cc1	24 nM
COc1cccc2c1cc(C(=O)NCc1ccc([N+](C)(C)C)cc1)n2Cc1cccc(C(=N)N)c1	62 nM
C[n+]1ccc(CCNC(=O)c2cc3ccccc3n2Cc2cccc(C(=N)N)c2)cc1	1300 nM
COc1ccc2c(c1)cc(C(=O)NCc1ccc([N+](C)(C)C)cc1)n2Cc1cccc(C(=N)N)c1	94 nM
Cc1c(C(=O)NCc2cc[n+](C)cc2)n(Cc2cccc(C(=N)N)c2)c2ccccc12	170 nM
C[N+](C)(C)c1ccc(CNC(=O)c2cc3cc(F)ccc3n2Cc2cccc(C(=N)N)c2)cc1	66 nM and 90 nM
C[n+]1ccc(CNC(=O)c2cc3c(O)cccc3n2Cc2cccc(C(=N)N)c2)c2ccccc21	50 nM
C[N+](C)(C)c1ccc(CNC(=O)c2cc3cc(S(C)(=O)=O)ccc3n2Cc2cccc(C(=N)N)c2)cc1	226 nM
Cc1c(F)ccc2c1cc(C(=O)NCc1ccc([N+](C)(C)Cc3ccccc3)cc1)n2Cc1cccc(C(=N)N)c1	245 nM
COC(=O)CN(Cc1cc[n+](C)cc1)C(=O)c1cc2ccccc2n1Cc1cccc(C(=N)N)c1	170 nM
C=CC[N+](C)(C)c1ccc(CNC(=O)c2cc3cc(F)ccc3n2Cc2cccc(C(=N)N)c2)cc1	141 nM
C#CC[N+](C)(C)c1ccc(CNC(=O)c2cc3cc(F)ccc3n2Cc2cccc(C(=N)N)c2)cc1	76 nM

SMILES	Ki
C[N+](C)(C)c1ccc(CNC(=O)c2cc3cc(Br)ccc3n2Cc2cccc(C(=N)N)c2)cc1	134 nM
COC(=O)c1c(C(=O)NCc2cc[n+](C)cc2)n(Cc2cccc(C(=N)N)c2)c2ccccc12	350 nM
C[n+]1ccc(CNC(=O)c2cc3ccccc3n2Cc2ccc(C(=N)N)cc2)cc1	600 nM
COc1cccc2c1cc(C(=O)NCCc1cc[n+](C)cc1)n2Cc1cccc(C(=N)N)c1	160 nM
C[n+]1ccc(CNC(=O)c2cc3cc(F)ccc3n2Cc2cccc(C(=N)N)c2)cc1	360 nM
CCN(Cc1cc[n+](C)cc1)C(=O)c1cc2ccccc2n1Cc1cccc(C(=N)N)c1	500 nM
C[N+](C)(C)c1ccc(CNC(=O)c2cc3cc([N+](=O)[O-])ccc3n2Cc2cccc(C(=N)N)c2)cc1	144 nM
Cc1cccc2c1cc(C(N)=O)n2Cc1cccc(C(=N)N)c1	7910 nM
Cc1cccc2c1cc(C(=O)NCc1ccc(O)cc1)n2Cc1cccc(C(=N)N)c1	1610 nM
N=C(N)c1cccc(Cn2c(C(=O)NCc3cccc(F)c3)cc3c(O)cccc32)c1	720 nM
CSC(=O)c1cc2c(O)cccc2n1Cc1cccc(C(=N)N)c1	2990 nM
N=C(N)c1cccc(Cn2c(C(=O)NCc3ccccc3)cc3c(O)cccc32)c1	2030 nM
N=C(N)c1cccc(Cn2c(C(=O)NCc3ccc4ccc5cccc6ccc3c4c56)cc3c(O)cccc32)c1	2060 nM
N=C(N)c1cccc(Cn2c(C(=O)NNS(=O)(=O)c3ccccc3)cc3c(O)cccc32)c1	7050 nM
N=C(N)c1cccc(Cn2c(C(=O)NC(c3ccccc3)c3ccncc3)cc3ccccc32)c1 (centres undefined)	7030 nM
N=C(N)c1cccc(Cn2c(C(N)=O)cc3c(O)cccc32)c1	7160 nM
Cc1cc(C)cc(CNC(=O)c2c(Br)c3ccccc3n2Cc2cccc(C(=N)N)c2)c1	13 nM
N=C(N)c1cccc(Cn2c(C(=O)NCc3ccccn3)cc3c(O)cccc32)c1	3330 nM
CN(C)c1ccc(CNC(=O)c2cn(Cc3cccc(C(=N)N)c3)c3ccccc23)cc1	2190 nM
Cc1cccc2c1cc(C(=O)NCc1ccc(N(C)C)cc1)n2Cc1cccc(C(=N)N)c1	1310 nM
N=C(N)c1cccc(Cn2c(C(=O)NCCc3ccc(Br)cc3)cc3c(O)cccc32)c1	1630 nM
N=C(N)c1cccc(Cn2c(C(=O)NCc3cccc(C(F)(F)F)c3)cc3c(O)cccc32)c1	476 nM
N=C(N)c1cccc(Cn2c(C(=O)NCc3cccc(Br)c3)cc3c(O)cccc32)c1	117 nM
N=C(N)c1cccc(Cn2c(C(=O)NCc3ccccc3Cl)cc3c(O)cccc32)c1	1200 nM

SMILES	Ki
N=C(N)c1cccc(COC(=O)c2cc3cc(OCc4ccccc4)ccc3n2Cc2cccc(C(=N)N)c2)c1	61 nM
Cc1cccc2c1cc(C(=O)NCc1cc[n+]([O-])cc1)n2Cc1cccc(C(=N)N)c1	14500 nM
N=C(N)c1cccc(Cn2c(C(=O)NCc3ccc4ccccc4c3)cc3c(O)cccc32)c1	1720 nM
N=C(N)c1cccc(CNC(=O)c2cc3ccccc3n2Cc2cccc(C(=N)N)c2)c1	26 nM and 19 nM
N=C(N)c1cccc(Cn2c(C(=O)NCc3cccc(C(=O)O)c3)cc3c(O)cccc32)c1	10000 nM
N=C(N)c1cccc(Cn2c(C(=O)NCc3cccc4ccccc34)c(Cl)c3ccccc32)c1	304 nM
Cc1cccc2c1cc(C(=O)NCc1cccc3ccccc13)n2Cc1cccc(C(=N)N)c1	96 nM
N=C(N)c1cccc(Cn2c(C(=O)NCC(=O)Nc3ccc4ccccc4c3)cc3c(O)cccc32)c1	2380 nM
COc1ccc2c(cc(C(=O)NCc3ccncc3)n2Cc2cccc(C(=N)N)c2)c1OC	5310 nM
Cc1cccc2c1cc(C(=O)NCc1ccnc3ccccc13)n2Cc1cccc(C(=N)N)c1	173 nM
N=C(N)c1cccc(Cn2c(C(=O)NCc3cccc(I)c3)cc3c(O)cccc32)c1	42 nM
N=C(N)c1ccc(CNC(=O)c2cn(Cc3cccc(C(=N)N)c3)c3ccccc23)cc1	1120 nM
N=C(N)c1cccc(Cn2c(C(=O)NCc3ccc(Cl)c(Cl)c3)cc3c(O)cccc32)c1	841 nM
COC(=O)c1c(C(=O)OC)n(Cc2cccc(C(=N)N)c2)c2ccccc12	7500 nM
N=C(N)c1cccc(Cn2c(C(=O)NCc3ccc(Cl)cc3)cc3ccccc32)c1	3600 nM
COc1cccc2c1cc(C(=O)NCCc1ccc(O)cc1)n2Cc1cccc(C(=N)N)c1	970 nM
N=C(N)c1cccc(Cn2c(C(=O)NCc3cccc(NC(N)=O)c3)cc3c(O)cccc32)c1	180 nM
N=C(N)c1cccc(Cn2c(C(=O)NCCc3ccc(Cl)cc3)cc3c(O)cccc32)c1	1560 nM
N=C(N)c1cccc(Cn2c(C(=O)NCc3cc(Cl)cc(Cl)c3)c(Br)c3ccccc32)c1	85 nM
COc1ccc(CNC(=O)c2cc3c(O)cccc3n2Cc2cccc(C(=N)N)c2)cc1	1360 nM
CCOC(=O)c1cc2c(C)cccc2n1Cc1cccc(C(=N)N)c1	948 nM
N=C(N)c1cccc(Cn2c(C(N)=O)cc3ccccc32)c1	5650 nM
